Results: PubChem BioAssay (NCI)
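GI50 is the concentration that inhibits growth by half. Definition used: TGI = concentration required for complete inhibition of growth.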

Tests used:
Test in all cases: inhibition of tumour cell growth, NCI panel, 384-well format
SW-620 colon = system: SW-620 colon
IGROV1 ovarian = system: IGROV1 ovarian
UACC-257 melanoma = system: UACC-257 melanoma
SNB-19 CNS = system: SNB-19 CNS
KM12 colon = system: KM12 colon
MDA-MB-435 melanoma = system: MDA-MB-435 melanoma
EKVX NSCLC = system: EKVX NSCLC
786-0 renal = system: 786-0 renal
U251 glioblastoma = system: U251 glioblastoma
SK-MEL-28 melanoma = system: SK-MEL-28 melanoma
NCI/ADR-RES ovarian = system: NCI/ADR-RES ovarian
DU-145 prostate = system: DU-145 prostate
OVCAR-8 ovarian = system: OVCAR-8 ovarian
T-47D breast = system: T-47D breast
NCI-H23 lung = system: NCI-H23 lung
HOP-92 NSCLC = system: HOP-92 NSCLC
MOLT-4 leukemia = system: MOLT-4 leukemia
SNB-75 CNS = system: SNB-75 CNS
MCF7 breast = system: MCF7 breast
CAKI-1 renal = system: CAKI-1 renal
K-562 leukemia = system: K-562 leukemia
COLO 205 colon = system: COLO 205 colon
RPMI-8226 leukemia = system: RPMI-8226 leukemia
BT-549 breast = system: BT-549 breast
LOX IMVI melanoma = system: LOX IMVI melanoma
SK-OV-3 ovarian = system: SK-OV-3 ovarian
SF-268 CNS = system: SF-268 CNS
SF-539 CNS = system: SF-539 CNS
HT29 colon = system: HT29 colon
UACC-62 melanoma = system: UACC-62 melanoma
ACHN renal = system: ACHN renal
SK-MEL-5 melanoma = system: SK-MEL-5 melanoma
OVCAR-3 ovarian = system: OVCAR-3 ovarian
NCI-H460 NSCLC = system: NCI-H460 NSCLC
NCI-H522 lung = system: NCI-H522 lung
PC-3 prostate = system: PC-3 prostate
HCT-15 colon = system: HCT-15 colon
OVCAR-5 ovarian = system: OVCAR-5 ovarian
HCT-116 colon = system: HCT-116 colon
NCI-H226 lung = system: NCI-H226 lung
UO-31 renal = system: UO-31 renal
MDA-MB-231 breast = system: MDA-MB-231 breast
A549 NSCLC = system: A549 NSCLC
SR leukemia = system: SR leukemia
RXF 393 renal = system: RXF 393 renal
NCI-H322M lung = system: NCI-H322M lung
M14 melanoma = system: M14 melanoma

Cn1cc(-c2cc3c(N4CCN(c5ncc([C@@](C)(N)c6ccc(F)cc6)cn5)CC4)ncnn3c2)cn1
GI50 (SW-620 colon): 2.97 µM
TGI (SW-620 colon): 11.5 µM
GI50 (IGROV1 ovarian): 4.45 µM
TGI (IGROV1 ovarian): 16.7 µM
GI50 (UACC-257 melanoma): 2.1 µM
TGI (UACC-257 melanoma): 4.76 µM
GI50 (SNB-19 CNS): 5.93 µM
TGI (SNB-19 CNS): 24.4 µM
GI50 (KM12 colon): 4.11 µM
TGI (KM12 colon): 28.1 µM
GI50 (MDA-MB-435 melanoma): 7.13 µM
TGI (MDA-MB-435 melanoma): 27 µM
GI50 (EKVX NSCLC): 2.97 µM
TGI (EKVX NSCLC): 31.6 µM
GI50 ([…]-0 renal): 1.76 µM
TGI (786-0 renal): 3.37 µM
GI50 (U251 glioblastoma): 3.54 µM
TGI (U251 glioblastoma): 25.1 µM
GI50 (SK-MEL-28 melanoma): 6.9 µM
TGI (SK-MEL-28 melanoma): 19.7 µM
GI50 (NCI/ADR-RES ovarian): 3.19 µM
TGI (NCI/ADR-RES ovarian): 17.9 µM
GI50 (DU-145 prostate): 5.67 µM
TGI (DU-145 prostate): > 45.1 µM
GI50 (OVCAR-8 ovarian): 4.07 µM
TGI (OVCAR-8 ovarian): > 50.8 µM
GI50 (T-47D breast): 1.49 µM
TGI (T-47D breast): 6.16 µM
GI50 (NCI-H23 lung): 2.23 µM
TGI (NCI-H23 lung): 14.2 µM
GI50 (HOP-92 NSCLC): 2.66 µM
TGI (HOP-92 NSCLC): 10.2 µM
GI50 (MOLT-4 leukemia): 1.38 µM
TGI (MOLT-4 leukemia): 2.73 µM
GI50 (SNB-75 CNS): 2.16 µM
TGI (SNB-75 CNS): 7.03 µM
GI50 (MCF7 breast): 2.31 µM
TGI (MCF7 breast): 8.7 µM
GI50 (CAKI-1 renal): 3.71 µM
TGI (CAKI-1 renal): 17.6 µM
GI50 (K-562 leukemia): 1.12 µM
TGI (K-562 leukemia): 2.79 µM
GI50 (COLO 205 colon): 2.73 µM
TGI (COLO 205 colon): 6.51 µM
GI50 (RPMI-8226 leukemia): 1.59 µM
TGI (RPMI-8226 leukemia): 3.21 µM
GI50 (BT-549 breast): 2.52 µM
TGI (BT-549 breast): 7.85 µM
GI50 (LOX IMVI melanoma): 0.881 µM
TGI (LOX IMVI melanoma): 3.47 µM
GI50 (SK-OV-3 ovarian): 7.9 µM
TGI (SK-OV-3 ovarian): 52.7 µM
GI50 (SF-268 CNS): 7.57 µM
TGI (SF-268 CNS): 38.3 µM
GI50 (SF-539 CNS): 2.17 µM
TGI (SF-539 CNS): 12.2 µM
GI50 (HT29 colon): 2.65 µM
TGI (HT29 colon): > 26.2 µM
GI50 (UACC-62 melanoma): 4.42 µM
TGI (UACC-62 melanoma): 17.8 µM
GI50 (ACHN renal): 3.7 µM
TGI (ACHN renal): 13.9 µM
GI50 (SK-MEL-5 melanoma): 1.85 µM
TGI (SK-MEL-5 melanoma): 3.98 µM
GI50 (OVCAR-3 ovarian): 6.11 µM
TGI (OVCAR-3 ovarian): 18 µM
GI50 (NCI-H460 NSCLC): 3.73 µM
TGI (NCI-H460 NSCLC): 12.5 µM
GI50 (NCI-H522 lung): 2.41 µM
TGI (NCI-H522 lung): 23.3 µM
GI50 (PC-3 prostate): 2.86 µM
TGI (PC-3 prostate): 13.9 µM
GI50 (HCT-15 colon): 2.97 µM
TGI (HCT-15 colon): 20.2 µM
GI50 (OVCAR-5 ovarian): 5.61 µM
TGI (OVCAR-5 ovarian): 29.5 µM
GI50 (HCT-116 colon): 3.39 µM
TGI (HCT-116 colon): 12.3 µM
GI50 (NCI-H226 lung): 3.51 µM
TGI (NCI-H226 lung): 28.2 µM
GI50 (UO-31 renal): 3.6 µM
TGI (UO-31 renal): 14.7 µM
GI50 (MDA-MB-231 breast): 3.47 µM
TGI (MDA-MB-231 breast): > 35.4 µM
GI50 (A549 NSCLC): 4.21 µM
TGI (A549 NSCLC): 36.5 µM
GI50 (SR leukemia): 1.58 µM
TGI (SR leukemia): 3.02 µM
GI50 (RXF 393 renal): 1.03 µM
TGI (RXF 393 renal): 3.02 µM
GI50 (NCI-H322M lung): 6.68 µM
TGI (NCI-H322M lung): 21.5 µM
GI50 (M14 melanoma): 4.42 µM
TGI (M14 melanoma): 19.2 µM
